The record followed here is article PMC6268991, “Impact of Halogen Substituents on Interactions between 2-Phenyl-2,3-dihydroqulinazolin-4(1H)-one Derivatives and Human Serum Albumin” (Molecules, 2012).

T1 sequence (P02768 25-609): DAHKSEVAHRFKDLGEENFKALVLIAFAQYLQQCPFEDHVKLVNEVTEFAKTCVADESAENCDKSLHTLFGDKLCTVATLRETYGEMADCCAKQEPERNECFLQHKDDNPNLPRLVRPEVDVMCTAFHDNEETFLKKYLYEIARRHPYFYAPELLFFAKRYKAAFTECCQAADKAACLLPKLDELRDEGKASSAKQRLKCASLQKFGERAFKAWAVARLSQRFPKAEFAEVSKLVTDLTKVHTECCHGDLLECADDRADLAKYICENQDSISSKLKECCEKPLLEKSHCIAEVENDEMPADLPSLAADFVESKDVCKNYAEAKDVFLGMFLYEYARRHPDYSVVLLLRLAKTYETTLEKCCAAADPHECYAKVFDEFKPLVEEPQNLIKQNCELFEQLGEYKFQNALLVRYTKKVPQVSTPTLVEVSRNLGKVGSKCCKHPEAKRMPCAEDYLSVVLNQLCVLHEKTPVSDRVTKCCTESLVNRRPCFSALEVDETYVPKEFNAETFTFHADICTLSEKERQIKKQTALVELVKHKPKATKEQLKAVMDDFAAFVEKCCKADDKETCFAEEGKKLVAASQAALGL

The experiment has as its target T1, human serum albumin (HSA) (Homo sapiens, UniProt P02768).
T1 construct: gene ALB
The experiment can be described thus: intrinsic fluorescence quenching, modified Stern-Volmer. Type of experiment: binding. To be noted: 298 K, pH 7.4, 0.1 M Tris, 0.1 M NaCl, 1 µM HSA, ex 280 / em 337 nm; site II (subdomain IIIA), no site marker. The source says:
intrinsic fluorescence quenching, modified Stern-Volmer on human serum albumin (HSA)
On to `CC(C)(C)CC(=O)N1c2ccc(Cl)cc2C(=O)N(N=Cc2ccccc2)C1c1ccccc1` (centres unmarked) [3a, 3-(Benzylideneamino)-6-chloro-1-(3,3-dimethylbutanoyl)-2-phenyl-2,3-dihydroquinazolin-4(1H)-one], for which the “Ka (×10^4 M^-1)” value is reported as 2.16 ×10^4 M^−1.
The value for `CC(C)(C)CC(=O)N1c2ccc(Cl)cc2C(=O)N(N=Cc2ccc(F)cc2)C1c1ccc(F)cc1` (centres unmarked) [3b, 3-(4-Fluorobenzylideneamino)-6-chloro-1-(3,3-dimethylbutanoyl)-2-(4-fluorophenyl)-2,3-dihydroquinazolin-4 (1H)-one] was 2.64 ×10^4 M^−1; that for `CC(C)(C)CC(=O)N1c2ccc(Cl)cc2C(=O)N(N=Cc2ccc(Cl)cc2)C1c1ccc(Cl)cc1` (centres unmarked) [3c, 3-(4-Chlorobenzylideneamino)-6-chloro-1-(3,3-dimethylbutanoyl)-2-(4-chlorophenyl)-2,3-dihydroquinazolin-4(1H)-one] was 3.44 ×10^4 M^−1.
The value for `CC(C)(C)CC(=O)N1c2ccc(Cl)cc2C(=O)N(N=Cc2ccc(Br)cc2)C1c1ccc(Br)cc1` (centres unmarked) [3d, 3-(4-Bromobenzylideneamino)-6-chloro-1-(3,3-dimethylbutanoyl)-2-(4-bromophenyl)-2,3-dihydroquinazolin-4(1H)-one] was 4.37 ×10^4 M^−1; that for `CC(C)(C)CC(=O)N1c2ccc(Cl)cc2C(=O)N(N=Cc2ccc(I)cc2)C1c1ccc(I)cc1` (centres unmarked) [3e, 3-(4-Iodobenzylideneamino)-6-chloro-1-(3,3-dimethylbutanoyl)-2-(4-iodophenyl)-2,3-dihydroquinazolin-4(1H)-one] was 7.21 ×10^4 M^−1.
